The text below walks through data of patent US20180170904A1, “PYRIDIN-3-YL ACETIC ACID DERIVATIVES AS INHIBITORS OF HUMAN IMMUNODEFICIENCY VIRUS REPLICATION” (priority 2015, published 2018).

Structures are written as SMILES.

The first assay relates to NL-RLuc virus (recombinant NL4-3 proviral clone with Renilla Luciferase gene). In words: Inhibition of HIV replication (NL-RLuc reporter virus in MT-2 cells). It counts as cell-based. To be noted: Renilla, NL43, 120 h, read-out: Activity. From the text:
Inhibition of HIV replication: A recombinant NL-RLuc proviral clone was constructed in which a section of the nef gene from NL4-3 was replaced with the Renilla Luciferase gene. This virus is fully infectious and can undergo multiple cycles of replication in cell culture. In addition, the luciferous reporter provides a simple and easy method for quantitating the extent of virus growth and consequently, the antiviral activity of test compounds. The plasmid pNLRLuc contains the proviral NL-Rluc DNA cloned into pUC18 at the PvuII site. The NL-RLuc virus was prepared by transfection of 293T cells with the plasmid pNLRLuc. Transfections were performed using the LipofectAMINE PLUS kit from Invitrogen (Carlsbad, Calif.) according to the manufacturer and the virus generated was titered in MT-2 cells. For susceptibility analyses, the titrated virus was used to infect MT-2 cells in the presence of compound, and after 5 days of incubation, cells were processed and quantitated for virus growth by the amount of expressed luciferase. Assay media was RPMI 1640 supplemented with 10% heat inactivated fetal bovine serum (FBS), 100 units/ml penicillin G/100 units/ml streptomycin, 10 mM HEPES buffer pH 7.55 and 2 mM L-glutamine. The results from at least 2 experiments were used to calculate the EC50 values. Luciferase was quantitated using the Dual Luciferase kit from Promega (Madison, Wis.). Susceptibility of viruses to compounds was determined by incubation in the presence of serial dilutions of the compound. The 50% effective concentration (EC50) was calculated by using the exponential form of the median effect equation where (Fa)=1/[1+(ED50/drug conc.)^m] (Johnson V A, Byington R T. Infectivity Assay. In Techniques in HIV Research. ed. Aldovini A, Walker B D. 71-76. New York: Stockton Press.1990). Activity equal to A refers to a compound having an EC50≤100 nM, while B and C denote compounds having an EC50 between 100 nM and 1 uM (B) or >1 uM (C).
As to `COc1cccc(-c2ccc(-c3c(C)nc(C)c([C@H](OC(C)(C)C)C(=O)O)c3N3CCC(C)(C)CC3)cc2)c1` [Example 21, (S)-2-(tert-Butoxy)-2-(4-(4,4-dimethylpiperidin-1-yl)-5-(3′-methoxy-[1,1′-biphenyl]-4-yl)-2,6-dimethylpyridin-3-yl)acetic acid], the EC50 was less than 0.1 µM. Regarding `CCCCCc1ccc(-c2c(C)nc(C)c([C@H](OC(C)(C)C)C(=O)O)c2N2CCC(C)(C)CC2)cc1` [Example 22, (S)-2-(tert-Butoxy)-2-(4-(4,4-dimethylpiperidin-1-yl)-2,6-dimethyl-5-(4-pentylphenyl)pyridin-3-yl)acetic acid], the EC50 was less than 0.1 µM. Still for that read-out and setting: the value for `Cc1nc(C)c([C@H](OC(C)(C)C)C(=O)O)c(N2CCC(C)(C)CC2)c1-c1ccc(SCCC(C)C)cc1` [Example 23, (S)-2-(tert-Butoxy)-2-(4-(4,4-dimethylpiperidin-1-yl)-5-(4-(isopentylthio)phenyl)-2,6-dimethylpyridin-3-yl)acetic acid] was less than 0.1 µM; that for `Cc1nc(C)c([C@H](OC(C)(C)C)C(=O)O)c(N2CCC(C)(C)CC2)c1-c1ccc(C(=O)NCc2ccccc2)cc1` [Example 24, (S)-2-(5-(4-(Benzylcarbamoyl)phenyl)-4-(4,4-dimethylpiperidin-1-yl)-2,6-dimethylpyridin-3-yl)-2-(tert-butoxy)acetic acid] was less than 0.1 µM. On to `Cc1nc(C)c([C@H](OC(C)(C)C)C(=O)O)c(N2CCC(C)(C)CC2)c1-c1ccc(C(N)=O)cc1` [Example 25, (S)-2-(tert-Butoxy)-2-(5-(4-carbamoylphenyl)-4-(4,4-dimethylpiperidin-1-yl)-2,6-dimethylpyridin-3-yl)acetic acid], for which the EC50 is 0.1 to 1 µM. Turning to `Cc1nc(C)c([C@H](OC(C)(C)C)C(=O)O)c(N2CCC(C)(C)CC2)c1-c1ccc(CC(N)=O)cc1` [Example 26, (S)-2-(5-(4-(2-Amino-2-oxoethyl)phenyl)-4-(4,4-dimethylpiperidin-1-yl)-2,6-dimethylpyridin-3-yl)-2-(tert-butoxy)acetic acid], the EC50 lay within 0.1 to 1 µM. Take `Cc1nc(C)c([C@H](OC(C)(C)C)C(=O)O)c(N2CCC(C)(C)CC2)c1-c1ccc(C2(C#N)CC2)cc1` [Example 27, (S)-2-(tert-Butoxy)-2-(5-(4-(1-cyanocyclopropyl)phenyl)-4-(4,4-dimethylpiperidin-1-yl)-2,6-dimethylpyridin-3-yl)acetic acid]: the EC50 was less than 0.1 µM. On the same count and under the same terms, the value for `Cc1nc(C)c([C@H](OC(C)(C)C)C(=O)O)c(N2CCC(C)(C)CC2)c1-c1cncnc1` [Example 28, (S)-2-(tert-Butoxy)-2-(4-(4,4-dimethylpiperidin-1-yl)-2,6-dimethyl-5-(pyrimidin-5-yl)pyridin-3-yl)acetic acid] was 0.1 to 1 µM. The same measure, in the same setting: in the case of `Cc1nc(C)c([C@H](OC(C)(C)C)C(=O)O)c(N2CCC(C)(C)CC2)c1-c1ccc(N2CCCCC2)cc1` [Example 29, (S)-2-(tert-Butoxy)-2-(4-(4,4-dimethylpiperidin-1-yl)-2,6-dimethyl-5-(4-(piperidin-1-yl)phenyl)pyridin-3-yl)acetic acid] it was less than 0.1 µM. For the compound `Cc1nc(C)c([C@H](OC(C)(C)C)C(=O)O)c(N2CCC(C)(C)CC2)c1-c1ccc(S(=O)(=O)C(C)C)cc1` [Example 30, (S)-2-(tert-Butoxy)-2-(4-(4,4-dimethylpiperidin-1-yl)-5-(4-(isopropylsulfonyl)phenyl)-2,6-dimethylpyridin-3-yl)acetic acid], the EC50 was less than 0.1 µM. The same measure, in the same setting: the value for `Cc1nc(C)c([C@H](OC(C)(C)C)C(=O)O)c(N2CCC(C)(C)CC2)c1-c1ccc(CCCO)cc1` [Example 31, (S)-2-(tert-Butoxy)-2-(4-(4,4-dimethylpiperidin-1-yl)-5-(4-(3-hydroxypropyl)phenyl)-2,6-dimethylpyridin-3-yl)acetic acid] was less than 0.1 µM. As to `CNS(=O)(=O)c1ccc(-c2c(C)nc(C)c([C@H](OC(C)(C)C)C(=O)O)c2N2CCC(C)(C)CC2)cc1` [Example 32, (S)-2-(tert-Butoxy)-2-(4-(4,4-dimethylpiperidin-1-yl)-2,6-dimethyl-5-(4-(N-methylsulfamoyl)phenyl)pyridin-3-yl)acetic acid], the EC50 was in the range of 0.1 to 1 µM. For the compound `Cc1nc(C)c([C@H](OC(C)(C)C)C(=O)O)c(N2CCC(C)(C)CC2)c1-c1cc(F)c(F)c(F)c1` [Example 33, (S)-2-(tert-Butoxy)-2-(4-(4,4-dimethylpiperidin-1-yl)-2,6-dimethyl-5-(3,4,5-trifluorophenyl)pyridin-3-yl)acetic acid], the EC50 was less than 0.1 µM. As to `Cc1nc(C)c([C@H](OC(C)(C)C)C(=O)O)c(N2CCC(C)(C)CC2)c1-c1cc(F)c(CO)c(F)c1` [Example 34, (S)-2-(tert-Butoxy)-2-(5-(3,5-difluoro-4-(hydroxymethyl)phenyl)-4-(4,4-dimethylpiperidin-1-yl)-2,6-dimethylpyridin-3-yl)acetic acid], the EC50 is less than 0.1 µM. Regarding `Cc1nc(C)c([C@H](OC(C)(C)C)C(=O)O)c(N2CCC(C)(C)CC2)c1-c1ccc(S(=O)(=O)NC2CC2)cc1` [Example 35, (S)-2-(tert-Butoxy)-2-(5-(4-(N-cyclopropylsulfamoyl)phenyl)-4-(4,4-dimethylpiperidin-1-yl)-2,6-dimethylpyridin-3-yl)acetic acid], the EC50 lay in the range of 0.1 to 1 µM.

Turning to `Cc1nc(C)c([C@H](OC(C)(C)C)C(=O)O)c(N2CCC(C)(C)CC2)c1-c1ccc(C(C)(C)C#N)cc1` [Example 36, (S)-2-(tert-Butoxy)-2-(5-(4-(2-cyanopropan-2-yl)phenyl)-4-(4,4-dimethylpiperidin-1-yl)-2,6-dimethylpyridin-3-yl)acetic acid], the EC50 is less than 0.1 µM. Same read-out and setting: the value for `CC(=O)NNC(=O)c1ccc(-c2c(C)nc(C)c([C@H](OC(C)(C)C)C(=O)O)c2N2CCC(C)(C)CC2)cc1` [Example 37, (S)-2-(5-(4-(2-Acetylhydrazinecarbonyl)phenyl)-4-(4,4-dimethylpiperidin-1-yl)-2,6-dimethylpyridin-3-yl)-2-(tert-butoxy)acetic acid] was greater than 1 µM. Same read-out and setting: in the case of `Cc1nc(C)c([C@H](OC(C)(C)C)C(=O)O)c(N2CCC(C)(C)CC2)c1-c1ccc(C(C)(C)O)cc1` [Example 38, (S)-2-(tert-Butoxy)-2-(4-(4,4-dimethylpiperidin-1-yl)-5-(4-(2-hydroxypropan-2-yl)phenyl)-2,6-dimethylpyridin-3-yl)acetic acid] it was less than 0.1 µM; in that of `Cc1cc(-c2c(C)nc(C)c([C@H](OC(C)(C)C)C(=O)O)c2N2CCC(C)(C)CC2)ccc1F` [Example 39, (S)-2-(tert-Butoxy)-2-(4-(4,4-dimethylpiperidin-1-yl)-5-(4-fluoro-3-methylphenyl)-2,6-dimethylpyridin-3-yl)acetic acid], less than 0.1 µM; in that of `Cc1nc(C)c([C@H](OC(C)(C)C)C(=O)O)c(N2CCC(C)(C)CC2)c1-c1cccc(C(C)C)c1` [Example 40, (S)-2-(tert-Butoxy)-2-(4-(4,4-dimethylpiperidin-1-yl)-5-(3-isopropylphenyl)-2,6-dimethylpyridin-3-yl)acetic acid], less than 0.1 µM. As for `Cc1nc(C)c([C@H](OC(C)(C)C)C(=O)O)c(N2CCC(C)(C)CC2)c1-c1ccc(F)c(F)c1` [Example 41, (S)-2-(tert-Butoxy)-2-(5-(3,4-difluorophenyl)-4-(4,4-dimethylpiperidin-1-yl)-2,6-dimethylpyridin-3-yl)acetic acid], the EC50 is less than 0.1 µM.

The assay is the same for the next values; noted with them: Renilla, NL43, 120 h, read-out: EC50 μM.
On to `Cc1nc(C)c([C@H](OC(C)(C)C)C(=O)O)c(N2CCC(C)(C)CC2)c1-c1ccc(CC(N)=O)cc1` [Example 26, (S)-2-(5-(4-(2-Amino-2-oxoethyl)phenyl)-4-(4,4-dimethylpiperidin-1-yl)-2,6-dimethylpyridin-3-yl)-2-(tert-butoxy)acetic acid], for which the EC50 turned out to be 0.373 µM.

As to `CC(=O)NNC(=O)c1ccc(-c2c(C)nc(C)c([C@H](OC(C)(C)C)C(=O)O)c2N2CCC(C)(C)CC2)cc1` [Example 37, (S)-2-(5-(4-(2-Acetylhydrazinecarbonyl)phenyl)-4-(4,4-dimethylpiperidin-1-yl)-2,6-dimethylpyridin-3-yl)-2-(tert-butoxy)acetic acid], the EC50 turned out to be 1.15 µM.
